{"source": "patent US12285397B2", "about": "“Use of (s)-3-amino-4-(difluoromethylenyl) cyclopent-1-ene-1-carboxylic acid and related compounds, (1S,3S)-3-amino-4-(difluoromethylidene) cyclopentane-1-carboxylic acid and vigabatrin in the treatment of developmental disorders” (Ovid Therapeutics Inc., priority 2018, dated 2025)", "assay_type_in_all_cases": "in vivo, mouse", "key": {"Fmr1 KO2 mice [1]": {"test_system": "Fmr1 KO2 mice", "assay": "Open field hyperactivity (locomotor activity), Fmr1 KO2 mice", "source_text": "(§1) Mutant fmr1 knockout (KO) mice recapitulate the Fragile X syndrome (FXS) phenotype and represent a preclinical model for assessment of putative drug treatments. In this study three different mice models of FXS were used: Fmr1 KO1 is the original Fmr1 knockout animal that carries an insertion in exon 5. See, e.g., Bakker C E, et al., The Dutch-Belgian Fragile X Consortium, Fmr1 knockout mice: A model to study fragile X mental retardation. Cell. 1994; 78:23-33 It is a protein null, although Fmr1 mRNA is still present. It is backcrossed to the C57/B16 strain. Subsequently, these mice were bred into different background strains, such as the FVB inbred mouse strain. Fmr1 KO2 is a null allele at Fmr1 generated by deletion of the promoter and first exon of Fmr1. See, Mientjes, E J et al., The generation of a conditional Fmr1 knock out mouse model to study Fmrp function in vivo. Neurobiology of Disease (2006) 21(3): 549-555. It is both protein and mRNA null. Backcrossed to the C57/B16 strain. Genotyping was accomplished using TransnetXY Automated Genotyping (http://www.transnetyx.com/). TRANSNETYX, INC., 8110 Cordova Rd. Suite 119, Cordova, TN 38016, USA.\n(§2) The mice were housed in plastic cages (35×30×12 cm), 5 in each and habituated to the animal facilities for at least a week before test. The room temperature (21±2° C.), relative humidity (55±5%), a 12-h light-dark cycle (lights on 7 a.m.-7 p.m.) and air exchange (16 times per h) were automatically controlled. The animals had free access to commercial food pellets and water. Testing was conducted during the light phase. Testing was conducted on Fmr1 knockout mice and their wild-type (WT) littermates. Ten mice per treatment group, 14 weeks of age, were used for behavioral experiments. Experiments were conducted in line with the requirements of the UK Animals (Scientific Procedures) Act, 1986.\n(§3) Oral dosing was performed by using 1.5-in. curved, 20-gauge, stainless steel feeding needles with a 2.25-mm ball (Braintree Scientific, Braintree, MA). Each gavage treatment was given in 0.5% methyl cellulose (Methyl Cellulose M0512, Sigma-Aldrich, St Louis, MO) used as vehicle with or without treatment compounds. The same veterinarian, blinded to the treatment groups, performed the procedure, and documented animal reactions to oral gavage. Reactions considered to indicate stress were defined as excessive struggling during gavage or abnormal behavior after gavage (labored breathing, frozen stance, exaggerated jumping, shuddering, and hunched posture).\n(§4) For experiments all mice were tested once in the same apparatus. Prior to testing, mice not in the study were placed in the apparatus for some minutes before the experiment. The apparatus was then cleaned with moist and dry tissues before testing each mouse. The aim was to create a low but constant background mouse odor for all experimental subjects. All experiments were conducted with the experimenters blind to genotype and drug treatment during all testing and data analysis. Separate investigators prepared and coded dosing solutions, allocated the mice to the study treatment groups, dosed the animals, and collected the behavioral data. Data were analyzed by one-way analysis of variance (ANOVA) followed by post-hoc comparisons where appropriate using Tukey's Multiple Comparison Test. Data are represented as the mean and standard error of the mean (SEM).\n1. […]"}, "Fmr1 KO2 mice [2]": {"test_system": "Fmr1 KO2 mice", "assay": "Open field repetitive behavior: self grooming, Fmr1 KO2 mice", "design": "Effect on abnormal self grooming phenotype (FIG. 3): dose or concentration left out as unconfirmed", "source_text": "as §1, §2, §3, §4\n2. Open Field Repetitive Behaviors (stereotypies: anticlockwise circling (aka counter revolutions) (CCW) and self grooming). Fmr1 KO2 mice display the autism-like phenotypes of repetitive behaviors like CCW, self grooming and stereotypy that typically involves behaviors such as head bobbing. […]"}, "Fmr1 KO2 mice [3]": {"test_system": "Fmr1 KO2 mice", "assay": "Tests of daily living (nesting), Fmr1 KO2 mice", "source_text": "as §1, §2, §3, §4\n3. Tests of daily living (nesting). Species-typical behaviors offer easy ways to test for hippocampal dysfunction. The hippocampus is vital for the performance of species-typical tasks, or “activities of daily living” of mice. […]"}, "[4]": {"test_system": "Fmr1 KO1 transgenic mice in an FVB background", "assay": "Audiogenic seizures (AGS), Fmr1 KO1 mice in FVB background", "conditions": "for Incidence / Respiratory arrest / Seizure / Wild running: audio stimulus 60 seconds at 124 db", "procedure": "4. Audiogenic Seizures (AGS) are reflex seizures generated by loud noises in genetically predisposed mice. The Fmr1 KO1 mice display audiogenic seizures depending on age and background strain, the Fmr1 KO1 mouse on the FVB background is characterized by an increased AGS susceptibility at all ages and is considered a good animal model for epilepsy. The effect of (S)-3-amino-4-(difluoromethylenyl) cyclopent-1-ene-1-carboxylic acid was tested on AGS Fmr1 KO1 transgenic mice in an FVB background. Observable criteria are: 1. normal behavior, 2. wild running, 3. seizure, and 4. respiratory arrest.\n(S)-3-amino-4-(difluoromethylenyl) cyclopent-1-ene-1-carboxylic acid was administered to Fmr1 KO1 mice, males, age 2 months in the following amounts: 0.01 mg/kg, 0.05 mg/kg, and 0.1 mg/kg. Positive controls were administered 2-Methyl-6-(phenylethynyl)pyridine (MPEP), a mGluR5 antagonist, 30 mg/kg by i.p. and tested 20 minutes after injection. Audio stimulus was administered continuously for 60 seconds at 124 db."}}, "data": [{"smiles": "N[C@H]1C=C(C(=O)O)CC1=C(F)F", "note": "[Compound, (S)-3-Amino-4-(difluoromethylenyl)cyclopent-1-ene-1-carboxylic acid]", "values": [{"measurement": "Open field locomotor activity (total distance traveled), WT-Veh vs. KO2-Compound: Significant?", "setting": "Fmr1 KO2 mice [1]; 0.01 mg/Kg PO QD seven days", "value": "Yes"}, {"measurement": "Open field locomotor activity (total distance traveled), WT-Veh vs. KO2-Compound: Significant?", "setting": "Fmr1 KO2 mice [1]; 0.05 mg/Kg PO QD seven days", "value": "Yes"}, {"measurement": "Open field locomotor activity (total distance traveled), WT-Veh vs. KO2-Compound: Significant?", "setting": "Fmr1 KO2 mice [1]; 0.1 mg/Kg PO QD seven days", "value": "No"}, {"measurement": "Open field locomotor activity (total distance traveled), WT-Veh vs. KO2-Compound: Summary", "setting": "Fmr1 KO2 mice [1]; 0.1 mg/Kg PO QD seven days", "value": "ns"}, {"measurement": "Effect on abnormal self grooming phenotype (FIG. 3)", "setting": "Fmr1 KO2 mice [2]", "value": "rescued"}, {"measurement": "Time spent grooming (self grooming), WT-Veh vs. KO2-Compound: Significant?", "setting": "Fmr1 KO2 mice [2]; 0.01 mg/Kg PO QD seven days", "value": "Yes"}, {"measurement": "Time spent grooming (self grooming), WT-Veh vs. KO2-Compound: Significant?", "setting": "Fmr1 KO2 mice [2]; 0.05 mg/Kg PO QD seven days", "value": "No"}, {"measurement": "Time spent grooming (self grooming), WT-Veh vs. KO2-Compound: Summary", "setting": "Fmr1 KO2 mice [2]; 0.05 mg/Kg PO QD seven days", "value": "ns"}, {"measurement": "Time spent grooming (self grooming), WT-Veh vs. KO2-Compound: Significant?", "setting": "Fmr1 KO2 mice [2]; 0.1 mg/Kg PO QD seven days", "value": "No"}, {"measurement": "Time spent grooming (self grooming), WT-Veh vs. KO2-Compound: Summary", "setting": "Fmr1 KO2 mice [2]; 0.1 mg/Kg PO QD seven days", "value": "ns"}, {"measurement": "Nesting, WT-Veh vs. KO2-Compound: Significant?", "setting": "Fmr1 KO2 mice [3]; 0.01 mg/Kg PO QD seven days", "value": "Yes"}, {"measurement": "Nesting, WT-Veh vs. KO2-Compound: Significant?", "setting": "Fmr1 KO2 mice [3]; 0.05 mg/Kg PO QD seven days", "value": "No"}, {"measurement": "Nesting, WT-Veh vs. KO2-Compound: Summary", "setting": "Fmr1 KO2 mice [3]; 0.05 mg/Kg PO QD seven days", "value": "ns"}, {"measurement": "Nesting, WT-Veh vs. KO2-Compound: Significant?", "setting": "Fmr1 KO2 mice [3]; 0.1 mg/Kg PO QD seven days", "value": "No"}, {"measurement": "Nesting, WT-Veh vs. KO2-Compound: Summary", "setting": "Fmr1 KO2 mice [3]; 0.1 mg/Kg PO QD seven days", "value": "ns"}, {"measurement": "Effect on poorer nest building phenotype (FIG. 5)", "setting": "Fmr1 KO2 mice [3]; 0.05 and 0.1 mg/Kg", "value": "rescued"}, {"measurement": "Incidence", "setting": "[4]; 0.01 mg/kg", "value": 100, "unit": "%"}, {"measurement": "Respiratory arrest", "setting": "[4]; 0.01 mg/kg", "value": "7/10"}, {"measurement": "Seizure", "setting": "[4]; 0.01 mg/kg", "value": "10/10"}, {"measurement": "Wild running", "setting": "[4]; 0.01 mg/kg", "value": "10/10"}, {"measurement": "Incidence", "setting": "[4]; 0.05 mg/kg", "value": 100, "unit": "%"}, {"measurement": "Respiratory arrest", "setting": "[4]; 0.05 mg/kg", "value": "5/10"}, {"measurement": "Seizure", "setting": "[4]; 0.05 mg/kg", "value": "8/10"}, {"measurement": "Wild running", "setting": "[4]; 0.05 mg/kg", "value": "10/10"}, {"measurement": "Audiogenic seizure susceptibility reduced to", "setting": "[4]; 0.1 mg/Kg, Fmr1 KO1 mice (FVB background)", "value": 40, "unit": "%"}, {"measurement": "Incidence", "setting": "[4]; 0.1 mg/kg", "value": 40, "unit": "%"}, {"measurement": "Respiratory arrest", "setting": "[4]; 0.1 mg/kg", "value": "4/10"}, {"measurement": "Seizure", "setting": "[4]; 0.1 mg/kg", "value": "5/10"}, {"measurement": "Wild running", "setting": "[4]; 0.1 mg/kg", "value": "4/10"}]}]}
